Reference: patent publication US20100168033A1, “UNACYLATED GHRELIN AS THERAPEUTIC AGENT IN THE TREATMENT OF METABOLIC DISORDERS” (ALIZE PHARMA SAS, priority 2007, published 2010)
Where two headings read alike, the source gives them in different places. Non-standard residues stand in square brackets, D forms with d. No end group written: not given here.

What was measured:
HIT-T15 β-cells [1] = assay type: cell-based; details: for increase of cell survival: serum-free conditions
Procedure: MTT experiments were also performed in hamster HIT-T15 β-cells, to test the survival effect of UAG (1-28) or its fragments UAG (1-14), UAG (1-18), UAG (1-5) and UAG (17-28) in serum deprived medium, either alone or with IFN-γ/TNF-α/IL-1β. As for the experiments performed on INS-1E β-cells, the peptides were tested at increasing concentrations, ranging from 0.1 nM to 100 nM.
The survival effect of UAG (6-13), UAG (8-13), UAG (8-12), UAG (8-11), UAG (9-12) and UAG (9-11) was assessed in cytokine-treated HIT-T15 β-cells.
The protective effects of peptides UAG (8-13) and UAG (8-12) were found similar to those of UAG (1-14) and UAG (1-18) A peptide made of the inverse sequence of UAG (1-14) and named UAG (14-1), was used as negative control for these experiments (FIG. 5A). […] These effects were however lower than those of UAG (6-13) (FIG. 5B).
UAG fragments with alanine (Ala) substitutions at different amino acid positions (6 to 13) were tested with regards to their survival effects in HIT-T15 hamster β-cells. The cells were cultured in serum deprived medium, either alone or with IFN-γ/TNF-α/IL-1β. The peptides were tested at the concentrations of 1 nM to 100 nM. […] Under treatment with cytokines, where cell survival was reduced by ≈18% with respect to serum starved conditions, all Ala substitutions, except those at positions 10 and 11, completely reversed cell death and brought the survival rate to levels that were even higher than those under serum-free conditions, at both 1 nM and 100 nM concentrations. These effects, were similar to those elicited by the original peptide UAG (6-13) (FIG. 11B).
Particularly, the best effect was exerted by Gly 6-UAG (6-13), whereas the lowest was seen using AcSer 6-UAG (6-13), AcSer 6-(D)Pro 7-UAG (6-13) (FIG. 12B).
(§1) Cell culture—Hamster HIT-T15 insulin-secreting β-cells were obtained and cultured as described (Refs. 14, 4). INS-1E rat β-cells were kindly provided by Prof. Claes B. Wollheim (University Medical Center, Geneva, Switzerland) and cultured as described (Refs. 14, 4). Cell culture reagents were from Invitrogen (Milano, Italy). Cytokines were from Biosource (Invitrogen, Italy).
(§2) Cell survival assay—Cell survival was assessed by 3-[4,5-dimethylthiazol-2-yl]-2,5 diphenyltetrazolium bromide (MTT) as described previously (Ref. 4). Cells were seeded on 96-well plates at a density of 5×10^3 cells/well. After treatments, cells were incubated with 1 mg/ml MTT for ≈1 h. The medium was aspirated, and the formazan product solubilized with 100 μl DMSO. Viability was assessed by spectrophotometry at 570 nm absorbance using a 96-well plate reader.

HIT-T15 β-cells [2] = experiment: Apoptosis in cytokine-treated HIT-T15 β-cells; assay type: cell-based, hamster; details: for cytokine-induced apoptosis: 24 h serum-free medium with IFN-γ/TNF-α/IL-1β, peptides 1, 10, 100 nM
Procedure: HIT-T15 β-cells were cultured for 24 h in serum-free medium, either alone or with IFN-γ/TNF-α/IL-1β. In both cell lines, apoptosis increased under cytokine treatment, with respect to serum starvation alone. […] UAG (14-1), the inverse sequence of UAG (1-14), was used as negative control, whereas UAG (1-28), was used as positive control in each experiment.

INS-1E β-cells = experiment: MTT cell survival assay in INS-1E β-cells; assay type: cell-based, rat; details: peptides 0.1 nM to 100 nM
Procedure: The peptides were tested at increasing concentrations, ranging from 0.1 nM to 100 nM.
as §1, §2

human pancreatic islets [3] = experiment: MTT cell survival assay in human pancreatic islets; assay type: cell-based; details: 1 nM to 100 nM
Procedure: The survival effect of UAG (1-14), UAG (1-18), UAG (1-5) and UAG (17-28), with respect to that of full length UAG (1-28), was assessed in human pancreatic islets by MTT. The peptides were tested in islet cells cultured in serum deprived medium, either alone or with IFN-γ/TNF-α/IL-1β (5 ng/ml each).
Human islet isolation—Human islets were obtained from pancreases of multiorgan donors as described (Ref. 4). Islet preparations with purity >70%, not suitable for transplantation, were provided by European Consortium for Islet Transplantation (ECIT) “Islets for Research Distribution Program,” Transplant Unit, Scientific Institute San Raffaele, Vita-Salute University, Milan. Islets (10,000) were cultured in CMRL (Invitrogen) with 10% FBS.
as §2

human pancreatic islets [4] = experiment: Insulin secretion in human pancreatic islets; assay type: cell-based; details: peptide 100 nM; glucose absent or 2 to 25 mM
Procedure: The effects of UAG (1-14) and UAG (1-18), both used at 100 nM, were investigated on insulin secretion in human islets. […] UAG (1-28) and Exendin-4 were used as positive controls (FIGS. 8C and 8D).

[5] = system: Streptozotocin (STZ)-treated animals; experiment: Streptozotocin (STZ)-treated neonatal rats, diabetes model; assay type: in vivo, rat; details: for animal survival rate: day 9 after STZ
Excerpt: Natural birth occurred 6-7 days later. […] Pups were left with their mothers.
Pancreas removal and treatment—After excision, pancreases were removed and weighed.

ob/ob mice = experiment: ob/ob mice, 4-week intraperitoneal pump infusion; assay type: in vivo, mouse
Procedure: Baseline tail vein plasma samples were collected from free-fed and 16 h fasted ob/ob mice 7 and 6 days before pump implantation into K2EDTA coated capillary tubes (Microvette CB300 K2E; Sarstedt, Germany). The animals were then separated into three groups with approximately equivalent weight ranges. Ten week old mice were anesthetized, and a filled Alzet 1004 pump was inserted, delivery portal first, into the peritoneal cavity. The musculoperitoneal and skin layers were then closed using interrupted sutures (Vicryl 5.0 FS-2 absorbable suture). Animals received pumps containing either saline, 10 mg/ml UAG, or 3.5 mg/mL UAG (6-13) (n=8 per group). Alzet 1004 pumps deliver […], and infused 30 μg of hUAG/animal/day (˜600 μg/kg/day) and 10 μg of UAG (6-13)/animal/day (˜200 μg/kg/day).
Blood samples (at 0900-1000) were obtained from fed and fasted animals at weeks 2 and 4 via the tail vein into EDTA Microvette tubes. Glucose levels in tail vein blood were measured directly using a glucometer. On the last day of treatment baseline (fasted) blood samples were taken.
For the experimental data illustrated in FIGS. 14A, 14B, 15 and 16, the animals were obtained from Charles River Laboratories (Maastricht, The Netherlands). Animals (B6.V-Lep^ob/J, Charles River Laboratories, Belgian colony) were received in our animal facilities at 8 weeks of age, and acclimatized in individual cages for 2 weeks before treatments began. They were maintained under standard 12:12 h light:dark conditions, 21° C., and were allowed free access to food and water. The animals were also handled daily to accustom them to the method used for blood collection. The peptides were dissolved in sterile, nonpyrogenic, 0.9% saline (Baxter BV, Utrecht, The Netherlands). D-glucose was obtained from Sigma-Aldrich Chemie BV (Zwijndrecht, The Netherlands), and was dissolved at 400 mg/ml in 0.9% saline. Alzet pumps (model 1004) were obtained from Charles River Laboratories (Maastricht, The Netherlands). Pumps were filled with 0.9% saline, UAG or UAG (6-13) solution under sterile conditions, and pre-incubated in 0.9% saline for at least 48 hours at 37° C. to initiate flow. Blood glucose levels were measured directly from tail vein incisions using a Freestyle mini glucometer and test strips (ART05214 Rev.A; Abbot, Amersfoort, The Netherlands). Plasma insulin levels were assayed by Ultra-sensitive mouse insulin ELISA (Cat. #10-1150-10; Mercodia, Sweden).

[6] = system: UAG receptor on HIT-T15 pancreatic β-cells; experiment: [125I-Tyr4]-UAG competition binding, HIT-T15 membranes; parameters: species or system hamster; details: for binding to the UAG receptor: HIT-T15 cells
Procedure: (§3) The ability of the fragment UAG (6-13) to compete in a concentration-dependent manner with [^125I-Tyr^4]-UAG for HIT-T15 (FIG. 10A) and INS-1E (FIG. 10B) binding sites was assayed. As shown in FIGS. 10A and 10B, unlabelled UAG (1-28) and UAG (6-13) competed with a similar efficacy and in a concentration-dependent fashion with [^125I-Tyr^4]-UAG for such binding sites in both cell lines.
(§4) Binding assay—Membranes from hamster HIT-T15 and rat INS-1E to pancreatic β-cells were prepared and assayed for the presence of [^125I-Tyr^4]-UAG binding. The ability of UAG fragments to compete with the radioligand for such binding sites has been evaluated as previously described (Ref. 4). Data are presented as mean±S.E.M. of three independent experiments.

[7] = system: UAG receptor on INS-1E pancreatic β-cells; experiment: [125I-Tyr4]-UAG competition binding, INS-1E membranes; parameters: species or system rat; details: for binding to the UAG receptor: INS-1E cells
Procedure: as §3, §4

[8] = serum deprived medium with IFN-γ/TNF-α/IL-1β
[9] = serum deprived medium with IFN-γ/TNF-α/IL-1β (5 ng/ml each)

Ac-Ser-Pro-Glu-His-Gln-Arg-Val-Gln-NH2 (Ac-SPEHQRVQ-NH2; listed as Homo sapiens) [AcSer 6-UAG (6-13)]
cell survival (MTT) (HIT-T15 β-cells [1]; [8]): lowest

Ac-Ser-pro-Glu-His-Gln-Arg-Val-Gln-NH2 (Ac-S[dP]EHQRVQ-NH2; listed as Homo sapiens) [AcSer 6-(D)Pro 7-UAG (6-13)]
cell survival (MTT) (HIT-T15 β-cells [1]; [8]): lowest

EHQRVQ [UAG (8-13)]
cytokine-induced apoptosis (HIT-T15 β-cells [2]): significantly inhibited apoptosis at 10 and 100 nM

ESKKPPAKLQPR [UAG (17-28)]
cell survival (MTT) (INS-1E β-cells; [8]): reduced effect | cell survival (MTT) (INS-1E β-cells; serum-free medium): reduced, although significant, survival action | cell survival (MTT) (HIT-T15 β-cells [1]; serum deprived medium alone): no significant effect | cell survival (MTT) (HIT-T15 β-cells [1]; [8]): no significant effect | cell survival (MTT) (human pancreatic islets [3]; serum deprived medium alone): significantly increased survival of islet cells | cell survival (MTT) (human pancreatic islets [3]; [9]): had no effect

GSSFLSPEHQRVQQRKES [UAG (1-18)]
cell survival (MTT) (INS-1E β-cells; [8]): more potent than full length UAG (1-28) | cell survival (MTT) (INS-1E β-cells; serum-free medium): significant survival effect, comparable to that of UAG (1-28) | cell survival (MTT) (HIT-T15 β-cells [1]; serum deprived medium alone): significantly increased cell viability | cell survival (MTT) (HIT-T15 β-cells [1]; [8]): significantly increased cell viability | cell survival (MTT) (human pancreatic islets [3]; serum deprived medium alone): significantly increased cell survival at 1 nM and 10 nM | insulin secretion (human pancreatic islets [4]): significant effect with 7.5 mM glucose

Glu-His-Gln-Arg (EHQR; listed as Homo sapiens) [UAG (8-11)]
cell survival (MTT) (HIT-T15 β-cells [1]; [8]): significant survival effect only at 100 nM

Glu-His-Gln-Arg-Val (EHQRV; printed: Glu-His-Gln-Arg-Val) [UAG (8-12)]
cytokine-induced apoptosis (HIT-T15 β-cells [2]): some protective effect only at 100 nM

Gly-Pro-Glu-His-Gln-Arg-Val-Gln-NH2 (GPEHQRVQ-NH2; listed as Homo sapiens) [Gly 6-UAG (6-13)]
cell survival (MTT) (HIT-T15 β-cells [1]; [8]): best effect

Gly-Ser-Ser-Phe-Leu (GSSFL; listed as Homo sapiens) [UAG (1-5)]
cell survival (MTT) (INS-1E β-cells; [8]): reduced effect | cell survival (MTT) (INS-1E β-cells; serum-free medium): reduced, although significant, survival action | cell survival (MTT) (HIT-T15 β-cells [1]; [8]): slightly increased cell survival | cell survival (MTT) (human pancreatic islets [3]; serum deprived medium alone): little, although significant survival action at 10 nM | cell survival (MTT) (human pancreatic islets [3]; [9]): no cell protection

His-Gln-Arg [UAG (9-11)]
cell survival (MTT) (HIT-T15 β-cells [1]; [8]): no significant effect at both concentrations tested

His-Gln-Arg-Val (HQRV; listed as Homo sapiens) [UAG (9-12)]
cell survival (MTT) (HIT-T15 β-cells [1]; [8]): significantly increased cell survival at both the concentrations tested

SPEHQRVQ [UAG (6-13), Ser-Pro-Glu-His-Gln-Arg-val-Gln]
increase of cell survival (HIT-T15 β-cells [1]; peptide 1 nM): ≈ 18% | increase of cell survival (HIT-T15 β-cells [1]; peptide 100 nM): ≈ 30% | cytokine-induced apoptosis (HIT-T15 β-cells [2]): significantly reduced cytokine-induced apoptosis | cell number and morphology (HIT-T15 β-cells [2]; with respect to cytokine condition, data not shown): increased the number of cells, induced cell enlargement and small islets formation | animal survival rate ([5]; 30 nmol/l): ≈ 71% | animal survival rate ([5]; 100 nmol/l): 89% | reduction of plasma glucose vs. STZ group ([5]; day 70, 30 nmol/l): 31% | reduction of plasma glucose vs. STZ group ([5]; day 70, 100 nmol/l): 14% | plasma insulin levels ([5]; day 70, STZ-treated rats, UAG (6-13) at both concentrations): increasing insulin levels | suppressive effect on plasma glucose levels in fed animals (ob/ob mice; fed animals, relative to saline controls): 30-40% | fed plasma glucose levels (ob/ob mice; fed animals, relative to saline controls, not statistically significant (RM-ANOVA)): consistent suppressive effect | gonadal fat weight (ob/ob mice; over the period of treatment): did not cause an increase in gonadal fat weight | decrease of gonadal fat pad weight relative to saline treated controls (ob/ob mice; period of treatment, trend p<0.06): approximately 7% | binding to the UAG receptor [6]: highest binding activity | IC50 ([6]; HIT-T15 membranes, mean±S.E.M. of three experiments): 3.8 ± 0.3 nM | binding to the UAG receptor [7]: highest binding activity | IC50 ([7]; INS-1E membranes, mean±S.E.M. of three experiments): 2.4 ± 0.3 nM

UAG (1-13): UAG fragment named only in b93 as binding to the UAG receptor; no sequence listed (GSSFLSPEHQRVQ)
binding to the UAG receptor [6]: recognized and bound to the UAG receptor | binding to the UAG receptor [7]: recognized and bound to the UAG receptor
